Reference: article PMC12749626, “Expediting hit-to-lead progression in drug discovery through reaction prediction and multi-dimensional optimization” (Nature Communications, 2025)

Legend:
human MAGL = target: T1, human MAGL (Homo sapiens, UniProt Q99685); details: = pIC50 - cLogP
T1 sequence (Q99685 1-303): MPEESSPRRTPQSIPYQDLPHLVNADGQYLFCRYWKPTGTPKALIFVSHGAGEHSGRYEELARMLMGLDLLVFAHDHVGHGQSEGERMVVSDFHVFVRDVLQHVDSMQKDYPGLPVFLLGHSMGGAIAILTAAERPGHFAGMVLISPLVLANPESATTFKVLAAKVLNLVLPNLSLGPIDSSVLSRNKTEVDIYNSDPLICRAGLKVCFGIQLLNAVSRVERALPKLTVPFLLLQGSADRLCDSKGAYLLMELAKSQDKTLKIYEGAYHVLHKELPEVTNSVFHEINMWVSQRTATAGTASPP

5HT1A = 5HT1A (Homo sapiens, UniProt P08908); details: 10 uM; n=2
5HT2A = 5HT2A (Homo sapiens, UniProt P28223); details: 10 uM; n=2
5HT3 = 5HT3 (Homo sapiens, UniProt P46098); details: 10 uM; n=2
ABL1 = ABL1 (Homo sapiens, UniProt P00519); details: 10 uM; n=2
ACETYLCHOLINESTERASE = ACETYLCHOLINESTERASE (Homo sapiens, UniProt P22303); details: 10 uM; n=2
Chain of UniProt P22303 (P22303 32-614): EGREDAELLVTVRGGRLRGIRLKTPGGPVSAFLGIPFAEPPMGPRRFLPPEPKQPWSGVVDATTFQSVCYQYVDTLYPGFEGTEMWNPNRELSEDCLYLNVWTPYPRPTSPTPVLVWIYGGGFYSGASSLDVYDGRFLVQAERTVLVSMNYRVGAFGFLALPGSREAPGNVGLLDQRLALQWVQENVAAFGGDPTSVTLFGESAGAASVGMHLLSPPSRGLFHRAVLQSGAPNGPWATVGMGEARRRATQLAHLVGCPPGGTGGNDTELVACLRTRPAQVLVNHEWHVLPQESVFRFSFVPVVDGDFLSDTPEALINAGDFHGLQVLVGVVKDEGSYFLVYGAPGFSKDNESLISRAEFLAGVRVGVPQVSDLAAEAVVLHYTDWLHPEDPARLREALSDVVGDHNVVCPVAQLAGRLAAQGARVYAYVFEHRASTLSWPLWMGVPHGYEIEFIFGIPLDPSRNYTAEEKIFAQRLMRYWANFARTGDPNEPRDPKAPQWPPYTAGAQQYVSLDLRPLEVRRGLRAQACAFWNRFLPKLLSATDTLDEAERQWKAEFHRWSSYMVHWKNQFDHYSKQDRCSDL

ADENOSINE A1 REC. = ADENOSINE A1 REC. (Homo sapiens, UniProt P30542); details: 10 uM; n=2
ADENOSINE A3 REC. = ADENOSINE A3 REC. (Homo sapiens, UniProt P0DMS8); details: 10 uM; n=2
α1A-ADRENOCEPTOR = α1A-ADRENOCEPTOR (Homo sapiens, UniProt P35348); details: 10 uM; n=2
ANDROGEN REC. = ANDROGEN REC. (Homo sapiens, UniProt P10275); details: 10 uM; n=2
ANGIOTENSIN II REC. 1 = ANGIOTENSIN II REC. 1 (Homo sapiens, UniProt P30556); details: 10 uM; n=2
β2-ADRENOCEPTOR = β2-ADRENOCEPTOR (Homo sapiens, UniProt P07550); details: 10 uM; n=2
C[…]. CB1 = C[…]. CB1 (Homo sapiens, UniProt P21554); details: 10 uM; n=2
CDK2 = CDK2 (Homo sapiens, UniProt P24941); details: 10 uM; n=2
CHOLECYSTOKININ 1 REC. = CHOLECYSTOKININ 1 REC. (Homo sapiens, UniProt P32238); details: 10 uM; n=2
CYCLO OXYGENASE 2 = CYCLO OXYGENASE 2 (Homo sapiens, UniProt P35354); details: 10 uM; n=2
DOPAMINE D1 REC. = DOPAMINE D1 REC. (Homo sapiens, UniProt P21728); details: 10 uM; n=2
Chain of DOPAMINE D1 REC. (P21728 whole entry): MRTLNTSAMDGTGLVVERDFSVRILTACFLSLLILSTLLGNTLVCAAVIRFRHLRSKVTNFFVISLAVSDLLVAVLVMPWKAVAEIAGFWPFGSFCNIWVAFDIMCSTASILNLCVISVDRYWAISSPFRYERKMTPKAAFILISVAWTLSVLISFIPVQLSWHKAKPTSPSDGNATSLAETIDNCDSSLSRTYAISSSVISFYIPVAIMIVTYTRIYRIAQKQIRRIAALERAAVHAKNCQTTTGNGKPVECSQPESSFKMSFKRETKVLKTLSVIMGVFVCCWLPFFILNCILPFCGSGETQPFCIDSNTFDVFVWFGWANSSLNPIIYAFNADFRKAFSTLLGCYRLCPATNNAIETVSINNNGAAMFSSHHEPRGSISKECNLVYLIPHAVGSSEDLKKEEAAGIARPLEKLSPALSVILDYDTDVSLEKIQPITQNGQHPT

DOPAMINE D2 REC. (short) = DOPAMINE D2 REC. (short) (Homo sapiens, UniProt P14416); details: 10 uM; n=2
ESTROGEN REC. α = ESTROGEN REC. α (Homo sapiens, UniProt P03372); details: 10 uM; n=2
GLUC[…]. = GLUC[…]. (Homo sapiens, UniProt P04150); details: 10 uM; n=2
Chain of GLUC[…]. (P04150 whole entry): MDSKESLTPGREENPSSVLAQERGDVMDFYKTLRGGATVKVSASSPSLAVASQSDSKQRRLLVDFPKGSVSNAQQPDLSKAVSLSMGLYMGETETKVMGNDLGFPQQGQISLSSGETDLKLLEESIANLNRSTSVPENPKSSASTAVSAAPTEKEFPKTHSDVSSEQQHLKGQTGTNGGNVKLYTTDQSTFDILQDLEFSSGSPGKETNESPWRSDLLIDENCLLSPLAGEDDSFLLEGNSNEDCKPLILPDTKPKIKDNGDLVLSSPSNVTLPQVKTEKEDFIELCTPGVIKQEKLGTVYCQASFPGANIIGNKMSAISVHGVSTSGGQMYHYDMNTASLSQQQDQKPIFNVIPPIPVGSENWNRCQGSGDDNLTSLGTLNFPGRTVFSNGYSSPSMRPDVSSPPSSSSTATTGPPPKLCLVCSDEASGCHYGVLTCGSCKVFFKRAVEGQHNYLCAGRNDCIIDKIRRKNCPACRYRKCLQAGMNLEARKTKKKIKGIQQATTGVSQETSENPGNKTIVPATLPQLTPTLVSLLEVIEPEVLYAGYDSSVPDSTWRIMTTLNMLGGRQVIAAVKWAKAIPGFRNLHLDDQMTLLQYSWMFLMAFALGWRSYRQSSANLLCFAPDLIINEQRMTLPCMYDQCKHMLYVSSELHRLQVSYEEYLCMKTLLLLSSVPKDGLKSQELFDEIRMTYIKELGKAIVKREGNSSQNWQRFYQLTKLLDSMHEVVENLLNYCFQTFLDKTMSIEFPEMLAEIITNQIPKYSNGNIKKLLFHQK

GSK-3A = GSK-3A (Homo sapiens, UniProt P49840); details: 10 uM; n=2
GSK-3B = GSK-3B (Homo sapiens, UniProt P49841); details: 10 uM; n=2
HISTAMINE H1 REC. = HISTAMINE H1 REC. (Homo sapiens, UniProt P35367); details: 10 uM; n=2
HISTAMINE H2 REC. = HISTAMINE H2 REC. (Homo sapiens, UniProt P25021); details: 10 uM; n=2
HISTAMINE H3 REC. = HISTAMINE H3 REC. (Homo sapiens, UniProt Q9Y5N1); details: 10 uM; n=2
HIV-1 PROTEASE = HIV-1 PROTEASE (Human immunodeficiency virus type 1 group M subtype B, UniProt P04585); details: 10 uM; n=2
κ OPIOID REC. = κ OPIOID REC. (Homo sapiens, UniProt P41145); details: 10 uM; n=2
MONOAMINE OXIDASE-A = MONOAMINE OXIDASE-A (Homo sapiens, UniProt P21397); details: 10 uM; n=2
Chain of MONOAMINE OXIDASE-A (P21397 whole entry): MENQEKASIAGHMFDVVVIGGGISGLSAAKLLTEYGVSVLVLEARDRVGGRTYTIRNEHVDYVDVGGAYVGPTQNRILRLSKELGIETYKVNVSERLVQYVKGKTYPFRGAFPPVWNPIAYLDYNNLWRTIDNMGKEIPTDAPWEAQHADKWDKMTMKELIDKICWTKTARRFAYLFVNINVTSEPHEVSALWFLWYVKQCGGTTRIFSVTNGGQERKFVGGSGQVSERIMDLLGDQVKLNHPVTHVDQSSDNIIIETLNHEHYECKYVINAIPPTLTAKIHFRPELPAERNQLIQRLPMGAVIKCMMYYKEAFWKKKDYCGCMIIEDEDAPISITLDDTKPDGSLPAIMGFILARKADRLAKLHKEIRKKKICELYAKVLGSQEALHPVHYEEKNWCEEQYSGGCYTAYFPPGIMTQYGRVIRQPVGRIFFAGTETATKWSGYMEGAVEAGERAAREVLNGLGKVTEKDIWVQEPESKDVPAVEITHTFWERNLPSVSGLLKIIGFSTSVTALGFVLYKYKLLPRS

μ OPIOID REC. = μ OPIOID REC. (Homo sapiens, UniProt P35372); details: 10 uM; n=2
[…]. M2 = […]. M2 (Homo sapiens, UniProt P08172); details: 10 uM; n=2
Chain of […]. M2 (P08172 whole entry): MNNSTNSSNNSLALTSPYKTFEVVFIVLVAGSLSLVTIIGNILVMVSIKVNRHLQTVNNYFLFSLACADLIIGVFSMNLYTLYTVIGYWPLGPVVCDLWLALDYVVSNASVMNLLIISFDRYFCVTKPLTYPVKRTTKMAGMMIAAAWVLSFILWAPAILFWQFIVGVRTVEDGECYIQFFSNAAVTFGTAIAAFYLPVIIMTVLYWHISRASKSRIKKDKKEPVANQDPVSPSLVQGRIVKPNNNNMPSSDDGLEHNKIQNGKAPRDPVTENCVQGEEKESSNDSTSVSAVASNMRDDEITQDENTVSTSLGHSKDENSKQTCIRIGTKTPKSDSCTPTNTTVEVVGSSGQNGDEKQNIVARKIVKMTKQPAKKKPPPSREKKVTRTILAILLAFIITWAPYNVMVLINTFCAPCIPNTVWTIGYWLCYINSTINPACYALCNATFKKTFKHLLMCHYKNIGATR

NORE[…]. = NORE[…]. (Homo sapiens, UniProt P23975); details: 10 uM; n=2
PHOSPHODIESTERASE 3B = PHOSPHODIESTERASE 3B (Homo sapiens, UniProt Q13370); details: 10 uM; n=2
PHOSPHODIESTERASE 4D2 = PHOSPHODIESTERASE 4D2 (Homo sapiens, UniProt Q08499); details: 10 uM; n=2
SEROTONIN TRANSPORTER = SEROTONIN TRANSPORTER (Homo sapiens, UniProt P31645); details: 10 uM; n=2
XANTHINE OXIDASE = XANTHINE OXIDASE (Bos taurus, UniProt P80457); details: 10 uM; n=2
Chain of XANTHINE OXIDASE (P80457 2-1332): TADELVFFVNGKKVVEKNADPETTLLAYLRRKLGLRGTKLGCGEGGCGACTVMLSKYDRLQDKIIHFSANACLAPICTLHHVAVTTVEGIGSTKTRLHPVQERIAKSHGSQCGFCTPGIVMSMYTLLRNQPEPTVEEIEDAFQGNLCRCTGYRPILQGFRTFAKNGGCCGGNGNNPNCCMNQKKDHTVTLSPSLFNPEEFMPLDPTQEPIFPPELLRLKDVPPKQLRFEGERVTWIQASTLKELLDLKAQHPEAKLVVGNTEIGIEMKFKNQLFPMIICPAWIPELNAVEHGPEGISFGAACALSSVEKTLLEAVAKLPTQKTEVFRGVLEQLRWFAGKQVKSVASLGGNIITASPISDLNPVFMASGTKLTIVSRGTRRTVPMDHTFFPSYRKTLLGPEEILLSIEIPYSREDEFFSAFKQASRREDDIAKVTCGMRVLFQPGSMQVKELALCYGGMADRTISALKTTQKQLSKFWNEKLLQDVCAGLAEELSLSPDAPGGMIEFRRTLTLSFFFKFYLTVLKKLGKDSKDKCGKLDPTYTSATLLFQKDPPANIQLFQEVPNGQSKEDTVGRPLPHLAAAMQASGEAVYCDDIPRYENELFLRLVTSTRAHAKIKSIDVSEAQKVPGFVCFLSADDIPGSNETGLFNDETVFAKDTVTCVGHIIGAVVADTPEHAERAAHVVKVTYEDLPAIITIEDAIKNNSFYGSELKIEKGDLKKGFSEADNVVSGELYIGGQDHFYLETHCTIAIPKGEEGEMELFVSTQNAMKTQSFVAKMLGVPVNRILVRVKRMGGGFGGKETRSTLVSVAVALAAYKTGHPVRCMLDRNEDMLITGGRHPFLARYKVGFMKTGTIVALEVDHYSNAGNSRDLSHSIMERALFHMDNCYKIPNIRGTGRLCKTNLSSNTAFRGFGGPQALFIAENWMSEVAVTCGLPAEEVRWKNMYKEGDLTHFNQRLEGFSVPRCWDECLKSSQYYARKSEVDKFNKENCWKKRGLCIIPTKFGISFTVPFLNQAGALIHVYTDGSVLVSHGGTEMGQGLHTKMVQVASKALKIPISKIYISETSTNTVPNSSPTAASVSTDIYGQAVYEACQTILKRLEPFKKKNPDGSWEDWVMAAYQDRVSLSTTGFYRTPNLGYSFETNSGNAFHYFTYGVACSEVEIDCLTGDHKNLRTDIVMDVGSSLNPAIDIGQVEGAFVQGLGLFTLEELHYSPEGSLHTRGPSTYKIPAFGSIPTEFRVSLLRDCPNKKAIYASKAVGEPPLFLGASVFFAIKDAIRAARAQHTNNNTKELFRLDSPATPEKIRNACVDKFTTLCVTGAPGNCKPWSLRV

ZAP70 = ZAP70 (Homo sapiens, UniProt P43403); details: 10 uM; n=2
Chain of ZAP70 (P43403 whole entry): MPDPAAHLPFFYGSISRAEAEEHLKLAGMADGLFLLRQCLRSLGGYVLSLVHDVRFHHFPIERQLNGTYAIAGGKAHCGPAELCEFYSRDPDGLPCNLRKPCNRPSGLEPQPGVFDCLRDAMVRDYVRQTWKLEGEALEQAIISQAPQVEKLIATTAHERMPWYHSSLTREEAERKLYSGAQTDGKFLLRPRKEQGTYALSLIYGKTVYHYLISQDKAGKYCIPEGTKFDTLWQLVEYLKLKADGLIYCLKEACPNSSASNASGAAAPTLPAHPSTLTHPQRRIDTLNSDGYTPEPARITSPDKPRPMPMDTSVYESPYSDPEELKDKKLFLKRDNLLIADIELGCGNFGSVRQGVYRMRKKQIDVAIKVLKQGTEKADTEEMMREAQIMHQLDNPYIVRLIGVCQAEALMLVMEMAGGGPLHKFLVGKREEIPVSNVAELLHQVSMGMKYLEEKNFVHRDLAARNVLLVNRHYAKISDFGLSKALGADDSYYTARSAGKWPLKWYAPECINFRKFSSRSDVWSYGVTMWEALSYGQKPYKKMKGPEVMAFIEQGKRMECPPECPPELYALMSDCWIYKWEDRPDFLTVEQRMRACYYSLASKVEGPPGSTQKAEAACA

[1] = system: closely related brain hydrolases; details: activity-based protein profiling, mouse brain, 10 µM

Compound: O=C(c1ccc2nc(-c3cnccc3C3(C4CCC4)CC3)oc2c1)N1CCN(c2nc3nc(Cl)ccc3o2)CC1 [Compound 27]
- Lipophilic efficiency (LipE) (human MAGL): 3.72
- 5HT1A percent activity or inhibition compared to the assay reference (5HT1A): 28%
- 5HT2A percent activity or inhibition compared to the assay reference (5HT2A): 12%
- 5HT3 percent activity or inhibition compared to the assay reference (5HT3): -3%
- ABL1 percent activity or inhibition compared to the assay reference (ABL1): -3%
- ACETYLCHOLINESTERASE percent activity or inhibition compared to the assay reference (ACETYLCHOLINESTERASE): -4%
- ADENOSINE A1 REC. percent activity or inhibition compared to the assay reference (ADENOSINE A1 REC.): 13%
- ADENOSINE A3 REC. percent activity or inhibition compared to the assay reference (ADENOSINE A3 REC.): 7%
- α1A-ADRENOCEPTOR percent activity or inhibition compared to the assay reference (α1A-ADRENOCEPTOR): 5%
- ANDROGEN REC. percent activity or inhibition compared to the assay reference (ANDROGEN REC.): -6%
- ANGIOTENSIN II REC. 1 percent activity or inhibition compared to the assay reference (ANGIOTENSIN II REC. 1): -1%
- β2-ADRENOCEPTOR percent activity or inhibition compared to the assay reference (β2-ADRENOCEPTOR): -2%
- C[…]. CB1 percent activity or inhibition compared to the assay reference (C[…]. CB1): 18%
- CDK2 percent activity or inhibition compared to the assay reference (CDK2): 0%
- CHOLECYSTOKININ 1 REC. percent activity or inhibition compared to the assay reference (CHOLECYSTOKININ 1 REC.): 4%
- CYCLO OXYGENASE 2 percent activity or inhibition compared to the assay reference (CYCLO OXYGENASE 2): 6%
- DOPAMINE D1 REC. percent activity or inhibition compared to the assay reference (DOPAMINE D1 REC.): -2%
- DOPAMINE D2 REC. (short) percent activity or inhibition compared to the assay reference (DOPAMINE D2 REC. (short)): 13%
- ESTROGEN REC. α percent activity or inhibition compared to the assay reference (ESTROGEN REC. α): -20%
- GLUC[…]. percent activity or inhibition compared to the assay reference (GLUC[…].): 5%
- GSK-3A percent activity or inhibition compared to the assay reference (GSK-3A): 30%
- GSK-3B percent activity or inhibition compared to the assay reference (GSK-3B): -8%
- HISTAMINE H1 REC. percent activity or inhibition compared to the assay reference (HISTAMINE H1 REC.): 48%
- HISTAMINE H2 REC. percent activity or inhibition compared to the assay reference (HISTAMINE H2 REC.): -4%
- HISTAMINE H3 REC. percent activity or inhibition compared to the assay reference (HISTAMINE H3 REC.): 15%
- HIV-1 PROTEASE percent activity or inhibition compared to the assay reference (HIV-1 PROTEASE): 34%
- κ OPIOID REC. percent activity or inhibition compared to the assay reference (κ OPIOID REC.): 48%
- MONOAMINE OXIDASE-A percent activity or inhibition compared to the assay reference (MONOAMINE OXIDASE-A): -2%
- μ OPIOID REC. percent activity or inhibition compared to the assay reference (μ OPIOID REC.): 16%
- […]. M2 percent activity or inhibition compared to the assay reference ([…]. M2): 76%
- NORE[…]. percent activity or inhibition compared to the assay reference (NORE[…].): 28%
- PHOSPHODIESTERASE 3B percent activity or inhibition compared to the assay reference (PHOSPHODIESTERASE 3B): 1%
- PHOSPHODIESTERASE 4D2 percent activity or inhibition compared to the assay reference (PHOSPHODIESTERASE 4D2): -7%
- SEROTONIN TRANSPORTER percent activity or inhibition compared to the assay reference (SEROTONIN TRANSPORTER): 1%
- XANTHINE OXIDASE percent activity or inhibition compared to the assay reference (XANTHINE OXIDASE): 6%
- ZAP70 percent activity or inhibition compared to the assay reference (ZAP70): -15%
- selectivity toward MAGL over off-targets and closely related brain hydrolases [1]: high selectivity
